Test results: patent publication US20220064214A1, “NOVEL PEPTIDES AND USES THEREOF” (CENNA BIOSCIENCES INC., priority 2019, published 2022)
Where “and” joins values, the source holds several entries; their conditions need not be identical. Identical values can stand only once. Marks after values point to notes of the source that are not given here. One block for each molecule: values may come before it. Square brackets hold non-standard residues; d marks the D form. Peptide text beside a SMILES is read from it.

Key:
[1] = Pharmacokinetics study in rats, plasma; type: in vivo; conditions: rat; for plasma concentration: individual rats
Method: (§1) An in-vivo study was carried out in rats to determine the pharmacokinetics (PK) of peptides P8, 8M1D and 8M2D in plasma and CSF. Each peptide was assessed through two dosage routes, intravenous (IV) and subcutaneous (SC). Three rats were assigned to each dose group with each peptide. Total of twelve rats per peptide were used.
(§2) Blood was collected through jugular vein cannulas, and the samples were collected into tubes with K2EDTA. After centrifuging at a temperature of 2 to 8° C. at 4,000×g for 5 minutes, the resulting plasma was split into equal aliquots, frozen, and stored at −60 to −80° C. One aliquot was for PK analysis and the other was for Aβ analysis (see Example 4).

[2] = Metabolic stability of peptides in fresh human plasma (LC/MS/MS); type: in vitro ADME; conditions: for rate at which metabolized in fresh human plasma (in words): compared among P8, 8M1 and 8M1D; for % Remaining / remaining at 3 h, 1 µM / remaining at 8 h, 1 µM / remaining at 24 h, 1 µM: fresh human plasma; for % Remaining: 0 h incubation; for remaining at 3 h, 1 µM: 3 h incubation; for remaining at 8 h, 1 µM: 8 h incubation; for remaining at 24 h, 1 µM: 24 h incubation
Method: P8, 8M1, and 8M1D were generated according to Example 1 with purities ranging from 98.0% to 99.0%. A primary 1.00 mM stock solution was prepared in either acetonitrile or acetonitrile:water (1:1, v/v) for each peptide. A 0.200 mM working stock was made from the primary stock in acetonitrile:water (1:1, v/v), which was used for the reactions. The primary and working stock solutions were stored at −20° C. when not in use, and they were kept at room temperature for as short a time as possible when in use. Fresh human plasma were maintained by adding sodium heparin as an anticoagulant.
The incubation procedures started when 5.00 μL of 0.2 mM (working stock solutions) of different peptides were added to 0.995 mL of fresh human plasma in a 1.7-mL snap tube. After 3, 8 and 24 hours of incubation, duplicate 50.0 μL aliquots of plasma were removed and placed into extraction tubes containing 150 μL of methanol, which served to quench any reactions, and thus incubations were ended. For each time point, the aliquotes were immediately extracted by vortex mixing and centrifugation. Resulting supernates were stored in High-Performance Liquid Chromatography (HPLC) vials and analyzed by LC/MS/MS after all samples were extracted. Valacyclovir was used as a positive control.
LC/MS/MS analysis of the incubation solutions was conducted by initial separation of the test article peaks using chromatography prior to detection by the mass spectrometer. The LC/MS system was comprised of a HPLC coupled with a TQS-Micro or Quattro Premier (Waters, Milford, Mass.). The mobile phase was nebulized using heated nitrogen in a Z spray source/interface set to electrospray in positive ionization mode for the peptides. The ionized peptides were detected using Tandem Quadropole Mass Spectrometry (MS/MS). The data was acquired using MassLynx (Waters, Milford, Mass.).
HPLC for the peptides and Valacyclovir control were performed with no guard columns, with a flow rate at 0.3 mL/min, with column temperature at 40° C., and autosampler temperature at 10° C. The column for peptides was MacMod ACE 2 Excel C18PFP, 100×2.1-mm, 2.0 μm, and the column for the control was Waters Atlantis T3, 150×2.1-mm, 5.0 μm. The injection loop and volumn for peptides were 50.0 μL and 20.0 μL respectively, and the ones for controls were 20.0 μL and 2.00 μL. For the Mass Spectrometer for the peptides and the Valacyclovir control, the source temperature was set to be 150° C., desolvation temperature was set to be 350° C., and polarity was set to be positive mode of electrospray ionization. Other parameters in HPLC and Mass Spectrometer are shown in Table 2.1, Table 2.2 and Table 3 below.

Aβ40 = assay: Efficacy in reducing Aβ40 in rat plasma (ELISA); type: in vivo; conditions: 10 mg/kg SC; for reduction in Aβ40: rat plasma; for Percent Decrease in Aβ 40 in Rat Plasma: mean of 3 rats, negative = decrease
Method: as §2
Rats (n=3 per peptide) were administered with P8, 8M1D, or 8M2D (10 mg/kg) subcutaneously, and plasma were collected at 0, 6, 12, and 24 h after dosing and Aβ40 analysis was carried out by ELISA (Invitrogen).

[3] = Pharmacokinetics study in rats, CSF; type: in vivo; set-up: CSF concentration, Mean IV / CSF concentration, Mean SC: unit not given here; conditions: rat; for CSF concentration, Mean IV: 10 mg/kg IV; for CSF concentration, Mean SC: 10 mg/kg SC
Method: as §1
CSF collection was performed by first anesthetizing animals at specified time points (see Table 5) with a mixture of 80 mg/kg ketamine and 8 mg/kg xylazine. The depth of anesthesia was monitored by toe pinches. CSF was collected via the cisterna magna (˜0.05 mL), and it was split into equal aliquots, frozen, and stored at −60 to −80° C.

γ-secretase = conditions: phase III clinical trial, cited from earlier work
[4] = 10 mg/kg IV and SC, at Cmax and most subsequent time points

exposure in plasma compared with P8 (in words) [1, 4]: better exposures than P8
plasma concentration ([1]; 10 mg/kg IV, 0 hr (pre-dose)): BQL
plasma concentration ([1]; 10 mg/kg IV, 0.167 hr, 10 mg/kg, in ng/mL (unit assumed)): 25,600 and 23,000 and 20,200
plasma concentration ([1]; 10 mg/kg IV, 0.5 hr, 10 mg/kg, in ng/mL (unit assumed)): 7,140 and 8,630 and 6,650
plasma concentration ([1]; 10 mg/kg IV, 1 hr, 10 mg/kg, in ng/mL (unit assumed)): 1,680 and 2,160 and 1,580
plasma concentration ([1]; 10 mg/kg IV, 2 hr, 10 mg/kg, in ng/mL (unit assumed)): 215 and 360 and 290
plasma concentration ([1]; 10 mg/kg IV, 4 hr, 10 mg/kg, in ng/mL (unit assumed)): 25.6 and 16.0 and 17.0
plasma concentration ([1]; 10 mg/kg IV, 6 hr, 10 mg/kg): 2.93 ^b and 0.805 ^b and 1.48 ^b
plasma concentration ([1]; 10 mg/kg IV, 8 hr): BQL
plasma concentration ([1]; 10 mg/kg IV, 12 hr): BQL
plasma concentration ([1]; 10 mg/kg IV, 24 hr): BQL
plasma concentration ([1]; 10 mg/kg SC, 0 hr (pre-dose)): BQL
plasma concentration ([1]; 10 mg/kg SC, 0.167 hr, 10 mg/kg): 20,500 ^a and 19,100 and 25,900
plasma concentration ([1]; 10 mg/kg SC, 0.5 hr, 10 mg/kg): 12,300 ^a and 10,900 and 11,800
plasma concentration ([1]; 10 mg/kg SC, 1 hr, 10 mg/kg, in ng/mL (unit assumed)): 5,440 and 4,310 and 3,410
plasma concentration ([1]; 10 mg/kg SC, 2 hr, 10 mg/kg, in ng/mL (unit assumed)): 1,330 and 1,570 and 642
plasma concentration ([1]; 10 mg/kg SC, 4 hr, 10 mg/kg, in ng/mL (unit assumed)): 49.8 and 75.3 and 43.9
plasma concentration ([1]; 10 mg/kg SC, 6 hr, 10 mg/kg): 11.4 and 8.83 ^b and 4.66 ^b
plasma concentration ([1]; 10 mg/kg SC, 8 hr, 10 mg/kg): 1.29 ^b and BQL (2×)
plasma concentration ([1]; 10 mg/kg SC, 12 hr): BQL
plasma concentration ([1]; 10 mg/kg SC, 24 hr): BQL
stability in fresh human plasma (in words) [2]: relatively stable
rate at which metabolized in fresh human plasma (in words) [2]: slowest
% Remaining [2]: 100%
remaining at 3 h, 1 µM [2]: 115%
remaining at 8 h, 1 µM [2]: 100%
remaining at 24 h, 1 µM [2]: 89.6%
time after dosing at which detectable in CSF ([3]; 10 mg/kg IV and SC): ≥ 8 h
exposure in CSF compared with P8 (in words) [3, 4]: better exposures than P8
CSF concentration, Mean IV ([3]; 0 hr): 0
CSF concentration, Mean IV ([3]; 0.5 hr): 67.8
CSF concentration, Mean IV ([3]; 1 hr): 80.8
CSF concentration, Mean IV ([3]; 2 hr): 65
CSF concentration, Mean IV ([3]; 4 hr): 23.4
CSF concentration, Mean IV ([3]; 8 hr): 0.913
CSF concentration, Mean IV ([3]; 12 hr): 0
CSF concentration, Mean IV ([3]; 24 hr): 0.261
CSF concentration, Mean SC ([3]; 0 hr): 0
CSF concentration, Mean SC ([3]; 0.5 hr): 50.9
CSF concentration, Mean SC ([3]; 1 hr): 66.1
CSF concentration, Mean SC ([3]; 2 hr): 62.9
CSF concentration, Mean SC ([3]; 4 hr): 18.9
CSF concentration, Mean SC ([3]; 8 hr): 3.85
CSF concentration, Mean SC ([3]; 12 hr): 0
CSF concentration, Mean SC ([3]; 24 hr): 0
Molecule: CC(C)C[C@H](NC(=O)[C@H](CCC(=O)O)NC(=O)[C@H](CCC(=O)O)NC(=O)[C@H](CC(=O)O)NC(=O)[C@H](CCC(=O)O)NC(=O)[C@H](CCC(=O)O)NC(=O)[C@H](CCC(=O)O)NC(=O)[C@H](N)CC(=O)O)C(N)=O [8M1D, dEEEDEEL-NH2] (H-[dD]EEEDEEL-NH2)
reduction in Aβ40 (Aβ40; 12 hr post dosing): about 27%
reduction in Aβ40 (Aβ40; 24 h post dosing): about 19%
Percent Decrease in Aβ 40 in Rat Plasma (Aβ40; 0 h): 0.00%
Percent Decrease in Aβ 40 in Rat Plasma (Aβ40; 6 h): −23.61%
Percent Decrease in Aβ 40 in Rat Plasma (Aβ40; 12 h): −27.34%
Percent Decrease in Aβ 40 in Rat Plasma (Aβ40; 24 h): −19.13%

Molecule: CC(C)[C@H](O)C(=O)N[C@@H](C)C(=O)N[C@@H]1C(=O)N(C)CCc2ccccc21 [semagacestat]
functional ability (in words) (γ-secretase; patients receiving the higher dose): significant worsening of functional ability
effect on improving cognitive functions (in words) (γ-secretase; patients): no effects on improving cognitive functions
adverse events (in words) (γ-secretase): more adverse events including skin cancers and infections

rate at which metabolized in fresh human plasma (in words) [2]: fastest
% Remaining [2]: 100%
remaining at 3 h, 1 µM [2]: 87.1%
remaining at 8 h, 1 µM [2]: 65.1%
remaining at 24 h, 1 µM [2]: 47.1%
Molecule: H-DEEEDEEL-NH2 [8M1, DEEEDEEL-NH2]
